Assay results taken from patent US20040014764A1, “N-myristoyltransferase inhibitor compositions and methods of use” (priority 2002, published 2004).
Where two headings read alike, the source gives them in different places.

Tests used:
[1] = test system: endogenous NMT; assay: N-myr-GFP localization in transfected CV-1 cells (fluorescence microscopy); assay type: cell-based, monkey
Protocol: Cellular effects of COPP compounds. […] To determine their efficacy in intact cells, a novel assay was developed in which the N-terminus of enhanced green fluorescent protein (GFP) was modified to allow its myristoylation (N-myr-GFP) by endogenous NMT. To begin, the myristoylation sequence […] was added to the N-terminus of green fluorescent protein (N-myr-GFP) using techniques familiar to those practiced in the art. Since GFP is intrinsically fluorescent, the sites of its intracellular distribution can be visualized using fluorescence microscopy. When a plasmid containing the N-myr-GFP sequence is transfected into CV-1 cells, the GFP encoded by this construct is myristoylated by endogenous NMT causing it to localize to the plasma membrane, as indicated by the bright fluorescence at the cell periphery (FIG. 2). […] This method provides evidence that the inhibitors detected in the screen with recombinant NMT can also block endogenous NMT activity in whole cells.

[2] = target: T1, recombinant human NMT (Homo sapiens, UniProt P30419); assay: NMT screening assay with purified recombinant GST-NMT-1, [3H]-myristoyl-CoA and biotinylated peptide
T1 sequence (P30419 1-496): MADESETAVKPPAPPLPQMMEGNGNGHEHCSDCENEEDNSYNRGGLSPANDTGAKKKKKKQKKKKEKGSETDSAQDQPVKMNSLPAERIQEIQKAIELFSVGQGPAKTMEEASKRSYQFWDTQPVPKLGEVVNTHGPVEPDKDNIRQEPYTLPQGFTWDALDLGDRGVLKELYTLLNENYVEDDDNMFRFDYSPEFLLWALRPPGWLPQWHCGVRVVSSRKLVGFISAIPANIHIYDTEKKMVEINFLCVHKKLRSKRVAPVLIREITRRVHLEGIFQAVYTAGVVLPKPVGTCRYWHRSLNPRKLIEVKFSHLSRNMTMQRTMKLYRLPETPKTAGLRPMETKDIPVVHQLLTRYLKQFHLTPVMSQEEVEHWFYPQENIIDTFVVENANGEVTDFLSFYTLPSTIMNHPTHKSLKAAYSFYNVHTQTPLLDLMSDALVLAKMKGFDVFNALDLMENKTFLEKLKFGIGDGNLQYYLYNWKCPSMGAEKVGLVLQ
Protocol: Development of the NMT screening assay. […] The cDNA encoding enzymatically active human NMT-1 was subcloned into the pGEX bacterial expression evector, producing an NMT-glutathione-S-transferase4 (GST) fusion protein. This protein was expressed in E. coli using methods well known to those trained in the art, purified using a glutathione resin, and stored at −80° C. until use. Enzyme activity was measured using the recombinant NMT, a peptide of the sequence [sequence]-biotin, wherein amino acids are designated by their recognized single letter code and the terminal lysine residue is conjugated with biotin, [^3H]-myristoyl-CoA, and a test compound or the solvent alone (DMSO). Reaction mixtures are incubated for a specific period of time in 96-well plates coated with streptavidin, which may be purchased from commercial sources including Sigma Chemical Company. […] The streptavidin-biotin interaction can then be disrupted with the addition of 0.1 M glycine, pH 2.8, and the solution containing [^3H]myristoyl-peptide can be transferred to scintillation vials. Alternately, determination of the amount of [^3H]myristoyl-peptide in the samples can be determined using scintillation proximity technology according to methods well known to those who practice the art.
Each compound was tested at a final concentration of 5 μg/ml, which corresponds to concentrations of 10-20 μM. Samples that inhibited NMT activity by at least 60% were then deconvoluted, where each of the 8 compounds was analyzed individually.

[3] = test system: T24 human bladder carcinoma cells; assay: Cytotoxicity assay, sulforhodamine B binding; settings: T-24, 48 h, read-out: Cytotoxicity IC50
Protocol: To determine the abilities of NMT inhibitors to affect the growth of hyperproliferative cells, cytotoxicity assays were performed using the T24 human bladder carcinoma cell line. […] In these assays, T24 cells growing in tissue culture in the presence of 10% fetal bovine serum are treated with varying concentrations of a test compound for 48 hours. At the end of the treatment period, the number of surviving tumor cells is quantified using any of a variety of methods well known in the field. In these, experiments, the number of surviving cells was determined using the sulforhodamine B binding assay.

[4] = test system: panel of human tumor cell lines; assay: Proliferation of a panel of human tumor cell lines (summary); assay type: cell-based; settings: range over the 8 cell lines of TABLE 3, read-out: IC50s across the tumor cell line panel
Protocol: (§1) Antiproliferative effects of compound 537.
(§2) Additionally, the effects of compound 537 on the proliferation of a panel of human tumor cell lines were determined. […] Of interest, colon-derived HT29 cells were most sensitive to compound 537, and previous work has indicated a close association of activation of Src (which requires myristoylation for activity) and colon cancer (Raju et al., Exp. Cell Res. 235: 145 (1997)).

[5] = target: T2, GST-hNMT-1 (Homo sapiens, UniProt P30419); assay: Peptide and myristoyl-CoA substrate competition experiments (Michaelis-Menten); assay type: biochemical
T2 construct: made in house; host or cells: E. coli
T2 sequence (P30419 1-496): T1 sequence (P30419 1-496)
Protocol: Development of the NMT screening assay.
Mechanism of inhibition of NMT by COPP compounds. The mechanism of inhibition by compound 537 was examined using peptide and myristoyl-CoA substrate competition experiments with GST-hNMT-l. In the absence of inhibitor, the KM for myristoyl-CoA compares very well with the literature value of 2.6 μM (Rocque et al., J Biol. Chem. 268: 9964 (1993)). […] However, it is well established that the affinity for the peptide is highly sequence-sensitive, so that KMS >100 μM are not unusual. For studies of the ability of compound 537 to interact with the peptide-binding site of NMT, the peptide concentration was varied from 0 to 500 μM, while the myristoyl-CoA concentration was kept constant in the assays. The presence of compound 537 at its IC50 concentration […] the KM for the peptide relative to the solvent control. […] To determine the effects of compound 537 on the myristoyl-CoA binding site, the concentration of myristoyl-CoA was varied from 0 to 100 μM, while the peptide concentration was held constant in the assays. […] Overall, these kinetic analyses indicate that compound 537, and most likely the rest of the COPP family, inhibit NMT activity by competing with the substrate peptide for binding to the enzyme.

[6] = test system: A-498; assay: Antiproliferative activity toward human tumor cell lines; assay type: cell-based; settings: A498, A-498, Kidney, mean ± SEM of 4 experiments
Protocol: as §1, §2

[7] = test system: MDA-MB-231; assay: as above; assay type: cell-based; settings: MDA-MB-231, Breast, mean ± SEM of 4 experiments
Protocol: as §1, §2

[8] = test system: SKOV3; assay: as above; assay type: cell-based; settings: SK-OV-3, SKOV3, Ovary, mean ± SEM of 4 experiments
Protocol: as §1, §2

[9] = test system: Panc-1; assay: as above; assay type: cell-based; settings: Panc-1, Pancreas, mean ± SEM of 4 experiments
Protocol: as §1, §2

[10] = test system: HepG2; assay: as above; assay type: cell-based; settings: HepG2, Liver, mean ± SEM of 4 experiments
Protocol: as §1, §2

[11] = test system: MCF-7; assay: as above; assay type: cell-based; settings: MCF7, MCF-7, Breast, mean ± SEM of 4 experiments
Protocol: as §1, §2

[12] = test system: HT29; assay: as above; assay type: cell-based; settings: HT-29, HT29, Colon, mean ± SEM of 4 experiments
Protocol: as §1, §2

[13] = test system: DU145; assay: as above; assay type: cell-based; settings: DU-145, DU145, Prostate, mean ± SEM of 4 experiments
Protocol: as §1, §2

[14] = target: T1, recombinant human NMT; set-up: made in house; host or cells: E. coli; settings: published value (Boutin et al. 1991); read-out: published IC50 concentration for NMT; cited from earlier work

Row | SMILES | IC50 [2] | IC50 [3] | further results
1 | CCCCCCCCCCCCC(O)C(=O)O (stereo not drawn) [2-hydroxymyristic acid, reference compound] | – | – | intracellular distribution of N-myr-GFP ([1]; millimolar concentrations): redistribution of GFP to the cytosol
2 | COc1ccc(CN2CCN3CCCC3C2C2CCCCC2)cc1 (stereo not drawn) [Compound 486] | 419 ± 30 µM | 8100 nM | –
3 | c1cncc(N2CCN3CCCC3C2C2CCCCC2)c1 (stereo not drawn) [Compound 522] | 590 ± 127 µM | 400000 nM | –
4 | CCn1c2ccccc2c2cc(CN3CCN4CCCC4C3C3CCCCC3)ccc21 (stereo not drawn) [Compound 537] | 6 µM | 1800 nM | IC50 [4]: 3.7 to 14.8 µM; Peptide Vmax ([5]; in presence of compound at its IC50 concentration, peptide varied 0 to 500 μM, myristoyl-CoA constant): 0.076 ± 0.006 pmol/min; Myristoyl-CoA Vmax ([5]; in presence of compound, myristoyl-CoA varied 0 to 100 μM, peptide constant): 0.034 ± 0.001 pmol/min; mechanism of inhibition with respect to the lipid substrate ([5]; myristoyl-CoA competition): noncompetitive inhibitor; mechanism of inhibition with respect to the peptide substrate ([5]; peptide competition): competitive inhibitor; IC50 [6]: 5.8 ± 1.4 µM; IC50 [7]: 11.9 ± 1.3 µM; IC50 [8]: 13.2 ± 3.6 µM; IC50 [9]: 12.6 ± 1.3 µM; IC50 [10]: 4.4 ± 1.2 µM; IC50 [11]: 8 ± 0.9 µM; IC50 [12]: 3.7 ± 0.6 µM; IC50 [13]: 14.8 ± 2.9 µM; intracellular distribution of N-myr-GFP ([1]; micromolar concentrations): displacement of N-myr-GFP to the cytosol
5 | c1ccc2cc(N3CCN4CCCC4C3C3CCCCC3)ccc2c1 (stereo not drawn) [Compound 542] | 42 ± 5 µM | 1300 nM | –
6 | Brc1csc(CN2CCN3CCCC3C2C2CCCCC2)c1 (stereo not drawn) [Compound 555] | > 8000 µM | 1200 nM | –
7 | Cc1ccc2occ(CN3CCN4CCCC4C3C3CCCCC3)c(=O)c2c1 (stereo not drawn) [Compound 591] | > 8000 µM | 9700 nM | –
8 | O=[N+]([O-])c1ccccc1-c1ccc(CN2CCN3CCCC3C2C2CCCCC2)o1 (stereo not drawn) [Compound 615] | 45 ± 2 µM | 1400 nM | –
9 | O=[N+]([O-])c1cccc(-c2ccc(CN3CCN4CCCC4C3C3CCCCC3)o2)c1 (stereo not drawn) [Compound 616] | 41 ± 1 µM | 2100 nM | –
10 | O=[N+]([O-])c1ccc(-c2ccc(CN3CCN4CCCC4C3C3CCCCC3)o2)cc1 (stereo not drawn) [Compound 617] | 36 ± 4 µM | 4600 nM | –
11 | COc1ccc(CN2CCN3CCCC3C2C2CCCCC2)c2ccccc12 (stereo not drawn) [Compound 621] | 35 ± 5 µM | 700 nM | –
12 | COc1ccc2ccccc2c1CN1CCN2CCCC2C1C1CCCCC1 (stereo not drawn) [Compound 622] | 28 ± 8 µM | 1500 nM | –
13 | C1CCC(C2C3CCCN3CCN2C2CCCCC2)CC1 (stereo not drawn) [Compound 624] | 113 ± 7 µM | 1600 nM | –
14 | c1cc2ccc3ccc(CN4CCN5CCCC5C4C4CCCCC4)c4ccc(c1)c2c34 (stereo not drawn) [Compound 629] | 70 ± 8 µM | 3000 nM | –
15 | CC1=C(CCN2CCN3CCCC3C2C2CCCCC2)C(C)(C)CCC1 (stereo not drawn) [Compound 638] | 43 ± 4 µM | 1400 nM | –
16 | COc1ccccc1/C=C/CN1CCN2CCCC2C1C1CCCCC1 (stereo not drawn) [Compound 640] | 1600 ± 200 µM | 2800 nM | –
17 | CC1C2CCCN2CCN1Cc1cccc(Oc2ccc(Cl)cc2)c1 (stereo not drawn) [Compound 726, 2-[3-(4-chloro-phenoxy)-benzyl]-1-methyl-octahydro-pyrrolo[1,2-a]pyrazine] | 40 ± 6 µM | 1500 nM | –
18 | CC1C2CCCN2CCN1Cc1c2ccccc2c(Cl)c2ccccc12 (stereo not drawn) [Compound 766] | 47 ± 7 µM | 4200 nM | –
19 | CCCCCCCCCCCCCC(=O)N[C@@H](Cc1ccccc1)C(=O)O [myristoylphenylalanine, reference compound] | – | – | inhibition at 100 µM ([2]; read-out: inhibition of recombinant human NMT): ~50%; IC50 [14]: 100 µM
